# According to US20240041042A1, “1-(PYRIDYL)-5-AZINYLPYRAZOLE DERIVATIVES, AND THEIR USE FOR CONTROL OF UNDESIRED PLANT GROWTH” (Bayer Aktiengesellschaft, priority 2020, published 2024):
# Like-named read-outs stand apart in the source and are kept apart here.
# Legend:
# Format in all cases: in vivo
# [1] = test system: Polygonum convolvulus (POLCO); experiment: Post-emergence herbicidal action against POLCO
# In short: (§1)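 Greenhouse plants sprayed at the one-leaf stage, 2–3 weeks after sowing, with WP or EC formulations plus 0.5% additive at 600 l/ha water. Activity rated visually after about 3 weeks versus untreated controls (100% = dead, 0% = like control), at 320 g/ha or lower.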
# [2] = test system: Lolium rigidum (LOLRI); experiment: Post-emergence herbicidal action against LOLRI
# In short: as §1
# [3] = test system: Digitaria sanguinalis (DIGSA); experiment: Post-emergence herbicidal action against DIGSA; details: visual rating about 3 weeks after treatment
# Procedure: Seeds of monocotyledonous and dicotyledonous weeds and crop plants are placed in sandy loam in plastic or organic planting pots, covered with soil and cultivated in a greenhouse under controlled growth conditions. 2 to 3 weeks after sowing, the test plants are treated at the one-leaf stage. The compounds of the invention, formulated in the form of wettable powders (WP) or as emulsion concentrates (EC), are then sprayed onto the green parts of the plants as aqueous suspension or emulsion with addition of 0.5% additive at a water application rate of 600 l/ha (converted). After the test plants have been kept in the greenhouse under optimum growth conditions for about 3 weeks, the activity of the preparations is rated visually in comparison to untreated controls. For example, 100% activity=the plants have died, 0% activity=like control plants.
# Tables B1 to B13 below show the effects of selected compounds of the general formula (I) according to Table 1 on various harmful plants and at an application rate corresponding to 320 g/ha or lower, which were obtained by the experimental procedure mentioned above. The appendices “a”, “b” and “c” give differentiation by dosage used with otherwise the same harmful plants tested.
# [4] = test system: Oryza sativa (ORYSA); details: crop plant compatibility
# In short: (§2)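 Greenhouse crops in sandy loam sprayed post-emergence at the one-leaf stage, 2–3 weeks after sowing, with WP or EC formulations in water plus 0.5% additive at 600 l/ha. Damage rated visually about 3 weeks later versus untreated controls (0% = like control, 100% = dead); suffixes a–c denote different doses.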
# [5] = test system: Setaria viridis (SETVI); experiment: Post-emergence herbicidal action against SETVI
# In short: as §1
# [6] = test system: Verconica persica (VERPE); experiment: Post-emergence herbicidal action against VERPE
# In short: as §1
# [7] = test system: Avena fatua (AVEFA); experiment: Post-emergence herbicidal action against AVEFA; details: visual rating about 3 weeks after treatment
# In short: as §1
# [8] = test system: Viola tricolor (VIOTR); experiment: Post-emergence herbicidal action against VIOTR
# In short: as §1
# [9] = test system: Pharbitis purpurea (PHBPU); experiment: Post-emergence herbicidal action against PHBPU
# In short: as §1
# [10] = test system: Abutilon theophrasti (ABUTH); experiment: Post-emergence herbicidal action against ABUTH; details: visual rating about 3 weeks after treatment vs untreated controls (100% = plants have died, 0% = like control plants)
# In short: as §1
# [11] = test system: Matricaria inodora (MATIN); experiment: Post-emergence herbicidal action against MATIN
# In short: as §1
# [12] = test system: Alopecurus myosuroides (ALOMY); experiment: Post-emergence herbicidal action against ALOMY; details: visual rating about 3 weeks after treatment vs untreated controls (100% = plants have died, 0% = like control plants)
# In short: as §1
# [13] = test system: Amaranthus retroflexus (AMARE); experiment: Post-emergence herbicidal action against AMARE
# In short: as §1
# [14] = test system: Echinochloa crus-galli (ECHCG); experiment: Post-emergence herbicidal action against ECHCG
# In short: as §1
# [15] = test system: Zea mays (ZEAMX); details: 20 g/ha, ZEAMX, effect in comparison to untreated controls
# In short: as §2
# [16] = 20 g/ha, effect vs untreated controls
# [17] = 320 g/ha, visual rating about 3 weeks after treatment
# [18] = 80 g/ha, visual rating about 3 weeks after treatment vs untreated controls (100% = plants have died, 0% = like control plants)
# [19] = 80 g/ha, effect in comparison to untreated controls
SMILES,Post-emergence action against POLCO in % ([1]; dosage 320 g/ha),Post-emergence action against LOLRI in % ([2]; dosage 80 g/ha),Post-emergence action against LOLRI in % ([2]; dosage 320 g/ha),Post-emergence action against DIGSA in % ([3]; 320 g/ha),"Post-emergence action against ORYSA in % [4, 16]",Post-emergence action against SETVI in % ([5]; dosage 80 g/ha),Post-emergence action against SETVI in % ([5]; dosage 320 g/ha),"Post-emergence action against VERPE in % ([6]; 320 g/ha, VERPE)",Post-emergence action against VERPE in % ([6]; dosage 80 g/ha),Post-emergence action against AVEFA in % ([7]; 80 g/ha),Post-emergence action against AVEFA in % ([7]; 320 g/ha),Post-emergence action against VIOTR in % ([8]; 80 g/ha),Post-emergence action against VIOTR in % ([8]; 320 g/ha),Post-emergence action against PHBPU in % ([9]; dosage 80 g/ha),Post-emergence action against PHBPU in % ([9]; dosage 320 g/ha),Post-emergence action against ABUTH in % ([10]; 320 g/ha),Post-emergence action against MATIN in % ([11]; dosage 80 g/ha),Post-emergence action against MATIN in % ([11]; dosage 320 g/ha),Post-emergence action against ALOMY in % ([12]; 320 g/ha),Post-emergence action against ECHCG in % ([14]; dosage 320 g/ha),also measured
CCOC(=O)[C@@H](C)Oc1nn(-c2ncccc2F)c(-c2cncc(F)c2)c1C1CC1 [Example I-172],80%,90%,90%,90%,20%,80%,80%,90%,80%,80%,90%,80%,90%,80%,90%,80%,90%,90%,90%,90%,"Post-emergence action against DIGSA in % ([3]; 80 g/ha): 80%; Post-emergence action against ALOMY in % ([12]; 80 g/ha): 90%; Post-emergence action against AMARE in % [13, 17]: 80%; Post-emergence action against ECHCG in % ([14]; dosage 80 g/ha): 80%"
COC(=O)[C@@H](C)Oc1nn(-c2ncccc2F)c(-c2cncc(F)c2)c1C1CC1 [Example I-144],80%,90%,90%,90%,0%,90%,90%,90%,90%,90%,90%,90%,90%,90%,90%,90%,90%,90%,90%,90%,"Post-emergence action against POLCO in % ([1]; dosage 80 g/ha): 80%; Post-emergence action against DIGSA in % ([3]; 80 g/ha): 90%; Post-emergence action against ABUTH in % ([10]; 80 g/ha): 80%; Post-emergence action against ALOMY in % ([12]; 80 g/ha): 90%; Post-emergence action against AMARE in % [13, 18]: 90%; Post-emergence action against AMARE in % [13, 17]: 90%; Post-emergence action against ECHCG in % ([14]; dosage 80 g/ha): 90%"
COC(=O)C(C)COC(=O)C(C)Oc1nn(-c2ccccn2)c(-c2ccc(F)nc2)c1Br (stereo not drawn) [Example I-285],80%,80%,90%,90%,10%,90%,90%,80%,80%,–,80%,80%,80%,80%,90%,80%,–,80%,90%,80%,"Post-emergence action against DIGSA in % ([3]; 80 g/ha): 80%; Post-emergence action against ZEAMX in % (crop plant compatibility) [15]: 10%; Post-emergence action against ORYSA in % [4, 19]: 10%; Post-emergence action against ALOMY in % ([12]; 80 g/ha): 90%"
CCOC(=O)[C@@H](C)Oc1nn(-c2ncccc2F)c(-c2cncc(F)c2)c1Br [Example I-227],90%,80%,90%,90%,0%,90%,90%,90%,90%,90%,90%,90%,90%,90%,100%,90%,80%,90%,90%,100%,"Post-emergence action against POLCO in % ([1]; dosage 80 g/ha): 90%; Post-emergence action against DIGSA in % ([3]; 80 g/ha): 80%; Post-emergence action against ABUTH in % ([10]; 80 g/ha): 90%; Post-emergence action against ALOMY in % ([12]; 80 g/ha): 80%; Post-emergence action against AMARE in % [13, 18]: 90%; Post-emergence action against AMARE in % [13, 17]: 90%; Post-emergence action against ECHCG in % ([14]; dosage 80 g/ha): 90%"
COC(=O)[C@@H](C)Oc1nn(-c2ncccc2F)c(-c2cncc(F)c2)c1I [Example I-197],90%,90%,90%,90%,0%,90%,90%,90%,90%,90%,90%,90%,90%,90%,100%,90%,80%,90%,90%,90%,"Post-emergence action against POLCO in % ([1]; dosage 80 g/ha): 90%; Post-emergence action against DIGSA in % ([3]; 80 g/ha): 90%; Post-emergence action against ORYSA in % [4, 19]: 10%; Post-emergence action against ABUTH in % ([10]; 80 g/ha): 90%; Post-emergence action against ALOMY in % ([12]; 80 g/ha): 90%; Post-emergence action against AMARE in % [13, 18]: 90%; Post-emergence action against AMARE in % [13, 17]: 90%; Post-emergence action against ECHCG in % ([14]; dosage 80 g/ha): 90%"
COC(=O)[C@@H](C)Oc1nn(-c2ncccc2F)c(-c2cncc(F)c2)c1Cl [Example I-146],90%,–,90%,90%,0%,90%,90%,90%,90%,90%,90%,90%,90%,90%,90%,90%,90%,90%,90%,90%,"Post-emergence action against POLCO in % ([1]; dosage 80 g/ha): 80%; Post-emergence action against ABUTH in % ([10]; 80 g/ha): 80%; Post-emergence action against AMARE in % [13, 18]: 90%; Post-emergence action against AMARE in % [13, 17]: 90%; Post-emergence action against ECHCG in % ([14]; dosage 80 g/ha): 90%"
CCOC(=O)[C@@H](C)Oc1nn(-c2nc(F)ccc2F)c(-c2cncc(F)c2)c1C1CC1 [Example I-177],90%,100%,100%,90%,0%,90%,90%,100%,100%,90%,90%,100%,100%,90%,90%,90%,90%,90%,100%,100%,"Post-emergence action against POLCO in % ([1]; dosage 80 g/ha): 90%; Post-emergence action against ABUTH in % ([10]; 80 g/ha): 90%; Post-emergence action against AMARE in % [13, 18]: 90%; Post-emergence action against AMARE in % [13, 17]: 90%; Post-emergence action against ECHCG in % ([14]; dosage 80 g/ha): 100%"
